In paper doi:10.1101/2025.08.13.670122v1 (bioRxiv, 2025):
Read-outs that look alike come from different tables or passages of the source.

Legend:
endogenous AT1R = biological target: T1, endogenous AT1R (Rattus norvegicus, UniProt P25095); assay: PKC BRET sensor in rat primary VSMC with endogenous AT1R; type: cell-based; conditions: for Emax PKC in VSMCs (% AngII): PKC sensor, for 12 and TRV027 response at 10 μM; for EC50: adenoviral PKC BRET sensor, 1 min stimulation, mean ± SEM of at least three to five independent experiments, read-out: EC50 PKC in VSMCs
T1 construct: expressing low levels of endogenous AT1R; endogenous in cells; host or cells: rat primary VSMC, passages 13-15
T1 sequence (P25095 1-359): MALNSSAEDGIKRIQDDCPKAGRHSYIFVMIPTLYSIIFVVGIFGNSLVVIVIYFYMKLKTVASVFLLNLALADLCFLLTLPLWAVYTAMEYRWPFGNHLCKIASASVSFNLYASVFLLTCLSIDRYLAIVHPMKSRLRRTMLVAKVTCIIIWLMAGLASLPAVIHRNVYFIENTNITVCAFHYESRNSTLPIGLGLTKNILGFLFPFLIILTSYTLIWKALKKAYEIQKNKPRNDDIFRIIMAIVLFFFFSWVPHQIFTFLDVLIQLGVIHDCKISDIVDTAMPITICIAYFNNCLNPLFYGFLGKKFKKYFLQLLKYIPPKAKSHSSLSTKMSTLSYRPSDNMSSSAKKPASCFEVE
Excerpt: We next assessed the analogs’ ability to engage Gαq by assessing either the PKC or Rho responses in rat primary vascular smooth muscle cell (VSMC) culture, expressing low levels of endogenous AT1R (between 25–50 fmol/mg) (Figure 4, Table 6).
The coding regions of the PKC-c1b sensor, PKN-RBD-RlucII, and rGFPcaax were PCR-amplified and subcloned into the KpnI/XhoI sites of the pENTR3C vector (Invitrogen), respectively. These were then transferred into the adenoviral expression vector pAd/CMV/V5-DEST (Invitrogen), via gateway cloning (pAD-CMV-PKC-c1b, pAD-CMV-PKN-RBD-RLucII, and pAD-CMV-rGFPcaax). Viruses containing the sensor codes were generated following a previously outlined process.[49] […] The following day, cells were transfected with 4 µg of PacI-digested pAd5-CMVsensors using Lipofectamine 2000 (Invitrogen). After 7–10 days post-transfection, mature virus particles were gleaned via the collection of cells and media, which then underwent multiple cycles of freezing and thawing, followed by centrifugation. The harvested virus was amplified by re-infection on 100-mm dishes of confluent HEK293A cells, and harvested 48-72 h later. Viral titers were determined by serial dilution of adenovirus stock and subsequent infection of HEK293A cells in 96-well plates. 36 h after infection, cells were stained using an anti-hexon antibody (ab8249; Abcam), and hexon-expressing cells were tallied via fluorescence microscopy. The virus was then stored at −80°C. After this, rat VSMCs (between the 13th to 15th passages) were seeded at a density of 20,000 cells in each well of white 96-well plates 24 h before transduction with the viral vector. The cells were then transduced with the PKC sensor-adenovirus (3 μL per well) or Rho sensor (1 μL each per well of PKN-RBD-RLucII-adnovirus and rGFP-caax adenovirus). After 24 h, the medium was replaced. 48 h post-viral transduction, the cells were thoroughly washed with Tyrode’s buffer. Finally, BRET assays were carried out as detailed below.
On the day of the experiment, each well was washed with 80 µL of Tyrode’s buffer (140 mM NaCl, 2.7 mM KCl, 1 mM CaCl2, 12 mM NaHCO3, 5.6 mM D-glucose, 0.5 mM MgCl2, 0.37 mM NaH2PO4, 25 mM Hepes (pH 7.4)). This was followed by incubation for 1 h in Tyrode’s buffer at room temperature. For the Gαq, β-arrestin-2, and PKC biosensors used in HEK293 cells, coelenterazine 400A (at a final concentration of 5 μM) was added 10 min before stimulation. Cells were then stimulated with increasing doses of the indicated ligand, and BRET signals were measured using a Tristar2 (Berthold) microplate reader 10 min later. For the PKC and Rho biosensors in VSMCs, and the Rho biosensor in ΔG12/13 cells, cells were similarly stimulated with ligands for 1 min, 1 min 30 s, and 3 min, respectively, before BRET measurement. […] BRET signals were then measured using a Synergy2 (BioTek) microplate reader. The applied filter set was 410/80 nm and 515/30 nm, designed to detect the light emissions of RlucII (Renilla luciferase) (donor) and rGFP (acceptor), respectively.

Plasma stability = type: in vitro ADME; conditions: male Sprague-Dawley rat plasma, 6 μL of 1 mM compound (10% DMSO) in 27 μL plasma, 37°C, 0-24 h, UPLC-MS, one-phase decay, mean ± SEM of at least three experiments, read-out: Plasmatic half-life t1/2 (±SEM)
Description: The degradation was quenched by adding 140 μL of 1% formic acid in an acetonitrile-ethanol (1:1) solution containing 0.25 mM of N,N-dimethylbenzamide (used as an internal standard). This mixture was initially transferred to an Impact Protein Precipitation filter plate (Phenomenex, California), the filtrates from which were subsequently collected in a second 96-well UPLC plate. Both plates were centrifuged at 500 g for 10 min while maintaining a temperature of 4°C. The filtrates were then diluted with 30 μL of distilled water and processed for analysis using an Acquity UPLC-MS system class H (using an Acquity UPLC protein BEH C18 column that measured 2.1 mm × 50 mm and had 1.7 μm particles with pores 130 Å in width). The peptide half-life, derived from the degradation curve, was calculated using the exponential one-phase decay function in GraphPad Prism 9. Degradation was estimated by comparing the mass spectrum at each point with those at the zero-minute mark. The data were presented as a mean ± SEM of at least three unique experiments, each performed in singlicate.

For `CC[C@H](C)[C@H](NC(=O)[C@H](Cc1ccc(O)cc1)NC(=O)[C@@H](NC(=O)[C@H](CCCNC(=N)N)NC(=O)[C@@H](N)CC(=O)O)C(C)C)C(=O)N[C@@H](Cc1c[nH]cn1)C(=O)N1CCC[C@H]1C(=O)N[C@@H](Cc1ccc(OC)cc1)C(=O)O` [compound 11], the “Emax PKC in VSMCs (% AngII)” value (endogenous AT1R) was 104 % AngII, the EC50 (endogenous AT1R; SEM) was 79.8 ± 17.7 nM and the half-life at 182 µM (Plasma stability) was 33 ± 4 min.
With `CC[C@H](C)[C@H](NC(=O)[C@H](Cc1ccc(O)cc1)NC(=O)[C@@H](NC(=O)[C@H](CCCNC(=N)N)NC(=O)[C@@H](N)CC(=O)O)C(C)C)C(=O)N[C@@H](Cc1c[nH]cn1)C(=O)N1CCC[C@H]1C(=O)N[C@@H](Cc1ccc(OCc2ccccc2)cc1)C(=O)O` [compound 12] the “Emax PKC in VSMCs (% AngII)” value (endogenous AT1R) was 13 % AngII, the EC50 (endogenous AT1R) was over 10000 nM and the half-life at 182 µM (Plasma stability) was 32 ± 3 min.
